We go through seven molecules from publication PMC6534834 (Breast Cancer Research : BCR, 2019).

Read-outs that look alike come from different tables or passages of the source. Some results are limits rather than exact numbers.

Series [1] in a line: Nintedanib (BIBF1120-BS and metabolite BIBF1202-ZW) plasma pharmacokinetics (LC-MS/MS). Format: in vivo, human. The note with it: for Cmax / Tmax / AUC(0-t): human, plasma, oral; for Cmax / Tmax / AUC(0-t) / Mean Cmax / Mean AUC0-last / Mean Tmax: nintedanib species in plasma; for AUC(0-t): read-out: Mean AUC0-last; for Mean plasma concentration at steady state (day 29) compared with day 1: level 2; for Pharmacokinetic interaction: increase in plasma concentrations: nintedanib and letrozole co-administered, three- for nintedanib, twofold for letrozole (respective).

In series [2] the test system is Cyp3A4. The note with it: cited from earlier work.
Series [3] deals with FGFR. The note with it: at the RP2D; cited from earlier work.
Series [4] has as its target T1, aromatase (Homo sapiens, UniProt P11511).
T1 sequence (P11511 1-503): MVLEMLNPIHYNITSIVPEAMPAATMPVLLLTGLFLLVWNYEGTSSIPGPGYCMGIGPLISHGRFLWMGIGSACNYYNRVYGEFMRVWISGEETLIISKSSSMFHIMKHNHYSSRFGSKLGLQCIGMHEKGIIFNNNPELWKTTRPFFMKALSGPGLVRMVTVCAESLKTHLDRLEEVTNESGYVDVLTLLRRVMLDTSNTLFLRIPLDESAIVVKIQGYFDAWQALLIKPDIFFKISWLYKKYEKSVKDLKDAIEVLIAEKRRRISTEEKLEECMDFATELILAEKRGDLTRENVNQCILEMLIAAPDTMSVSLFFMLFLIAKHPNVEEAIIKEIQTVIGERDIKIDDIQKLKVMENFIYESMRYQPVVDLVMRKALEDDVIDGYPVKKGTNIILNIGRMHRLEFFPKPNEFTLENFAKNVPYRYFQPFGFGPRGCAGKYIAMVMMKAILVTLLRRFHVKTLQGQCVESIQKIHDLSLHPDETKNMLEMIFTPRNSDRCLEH
On the set-up: endogenous in cells; host or cells: Tissues of the trial patients (in vivo). The settings on record: cited from earlier work; for Patients with 17-B-estradiol above the LLD: randomized 3-month crossover letrozole/anastrozole.

For series [5], the system named is tumors with FGFR gene alterations. The settings on record: cited from earlier work.
Series [6] in a line: Letrozole plasma pharmacokinetics (UPLC-MS/MS). The series is classed as in vivo, human. The settings on record: letrozole in plasma; for Cmax / AUC(0-t) / Tmax: human, plasma, oral; for AUC(0-t): read-out: Mean AUC0-last.
The conditions of series [7]: human, in vivo.
In series [8] the target is T1, aromatase. The series is described as follows: Plasma 17-B-estradiol level (clinical assay, LLD 5 pg/mL), pharmacodynamic marker of aromatase inhibition in patients. The series is classed as in vivo. More on the design: endogenous in cells; host or cells: Tissues of the trial patients (in vivo).
Where [9] appears, read: level 1 (nintedanib 150 mg/bid + letrozole […]), day 1.
[10] abbreviates: level 2 (nintedanib 200 mg/bid + letrozole […]), day 1.

In the case of `COC(=O)c1ccc2c(c1)NC(=O)/C2=C(\Nc1ccc(N(C)C(=O)CN2CCN(C)CC2)cc1)c1ccccc1` [nintedanib], the Cmax – broadly, the maximum level reached in the sampled fluid or tissue – in series [1] (setting [9]) turned out to be 51 ng/mL; in series [1] (level 1, day 29) it was 50 ng/mL; in series [1] (setting [10]) it was 65 ng/mL; in series [1] (level 2, day 29) it was 92 ng/mL. Also, the Tmax (commonly the time at which the peak concentration occurs) in series [1] (level 1, day 1) came to 1.9 h; in series [1] (level 1, day 29), 1.1 h; in series [1] (level 2, day 1), 2 h; in series [1] (level 2, day 29) it was 2 h. Moreover, the AUC(0-t) in series [1] (level 1, day 1) turned out to be 339 ng·h/mL; in series [1] (level 1, day 29) it was 519 ng·h/mL; in series [1] (level 2, day 1), 599 ng·h/mL; in series [1] (level 2, day 29), 941 ng·h/mL. Besides, the “BIBF1120-BS AUC on day 29 compared with day 1” value in series [1] (in vivo) is reported as “almost twofold higher”. Also, the “Mean plasma concentration at steady state (day 29) compared with day 1” value in series [1] was “almost twofold higher”. Further, the “Pharmacokinetic interaction: increase in plasma concentrations” value in series [1] is “three- and twofold increases in their respective plasma concentrations”. Also, the “BIBF1120-BS AUC on day 29 compared with steady-state values reported in phase I studies” value in series [1] (versus nintedanib monotherapy [28], with pemetrexed [27], or paclitaxel plus carboplatin [47]) is listed as “two to threefold higher”. The Metabolizing enzyme result in series [2] (no reference given) is “metabolized by Cyp3A4”.

With `COc1cc(OC)cc(N(CCNC(C)C)c2ccc3ncc(-c4cnn(C)c4)nc3c2)c1` [JNJ-42756493], the “Increase in FGF23 concentrations” value in series [3] is reported as ~ 20%.

In the case of `CN1CCN(CC(=O)N(C)c2ccc(N/C(=C3\C(=O)Nc4cc(C(=O)O)ccc43)c3ccccc3)cc2)CC1` [BIBF1202-ZW], in series [1], the “Mean plasma concentration at steady state (day 29) compared with day 1” value is reported as “almost twofold higher”. The “Mean Cmax” value in series [1] (setting [9]) turned out to be 24 ng/mL; in series [1] (level 1, day 29), 28 ng/mL; in series [1] (setting [10]) it was 41 ng/mL; in series [1] (level 2, day 29) it was 67 ng/mL. Also, the “Mean AUC0-last” value in series [1] (level 1, day 1) was 200 ng·h/mL; in series [1] (level 1, day 29) it was 367 ng·h/mL; in series [1] (level 2, day 1) it was 413 ng·h/mL; in series [1] (level 2, day 29) it was 824 ng·h/mL. For the same molecule, the “Mean Tmax” value in series [1] (level 1, day 1) amounted to 1.9 h; in series [1] (level 1, day 29), 1.1 h; in series [1] (level 2, day 1), 3.3 h; in series [1] (level 2, day 29) it was 3.0 h.

As to `CCN1CCN(c2ccc(Nc3cc(N(C)C(=O)Nc4c(Cl)c(OC)cc(OC)c4Cl)ncn3)cc2)CC1` [BGJ398], the “Increase in FGF23 concentrations” value in series [3] is ~ 50%.

Consider `CC(C)(C#N)c1cc(Cn2cncn2)cc(C(C)(C)C#N)c1` [anastrozole], for which the Metabolizing enzyme result in series [2] is given as “metabolized by Cyp3A4”. Besides, the “Patients with plasma 17-B-estradiol concentrations below the LLD” value in series [4] (n = 191) is given as 83%. Further, the “Patients with 17-B-estradiol above the LLD” value in series [4] is 37%.

Regarding AZD4547, in series [5] (MATCH arm W, patients with FGFR amplifications), the Disease stabilization rate is reported as 50%. The Response rate in series [5] (arm W of the MATCH trial) is given as 8%.

For the molecule `N#Cc1ccc(C(c2ccc(C#N)cc2)n2cncn2)cc1` [letrozole], the Cmax in series [6] (Level 1 (nintedanib 150 mg/bid + letrozole […]), day 1) is 100 ng/mL; in series [6] (Level 1, day 29), 89.4 ng/mL; in series [6] (Level 2 (nintedanib 200 mg/bid + letrozole […]), day 1), 124 ng/mL; in series [6] (Level 2, day 29), 148 ng/mL. Besides, the AUC(0-t) in series [6] (Level 1, day 1) was 2200 ng·h/mL; in series [6] (Level 1, day 29), 2060 ng·h/mL; in series [6] (Level 2, day 1), 2780 ng·h/mL; in series [6] (Level 2, day 29), 3170 ng·h/mL. For the same molecule, the Tmax in series [6] (Level 1, day 29) came to 4 h; in series [6] (Level 2, day 1), 4 h; in series [6] (Level 2, day 29), 2 h. Further, in series [6] (Level 1, day 1), the “Mean Tmax” value came to 0 h. Moreover, the “Pharmacokinetic interaction: increase in plasma concentrations” value in series [1] is “three- and twofold increases in their respective plasma concentrations”. The “Grade 3 toxic events attributed to letrozole” value in series [7] is listed as “No grade 3 toxic events were attributed to letrozole”. The Metabolizing enzyme result in series [2] (no reference given) is on record as “metabolized by Cyp3A4”. The “Patients with undetectable 17-B-estradiol levels (below LLD 5 pg/mL)” value in series [8] (EOT visit, 4 weeks after ceasing nintedanib administration) is 100%; in series [8] (day 1 (baseline), letrozole alone […] for at least 4 weeks) it was 87.5%. For the same molecule, the “Suppression of aromatase activity” value in series [4] (early letrozole trials) is above 95%. The “Patients with 17-B-estradiol above the LLD” value in series [4] is on record as 2%.
